Values of other authors in patent US12168054B2 (SYNDAX PHARMACEUTICALS, INC., priority 2017, dated 2024).

Assays:
histone acetylation = conditions: following the administration of entinostat
[1] = in vivo

For Nc1ccccc1NC(=O)c1ccc(CNC(=O)OCc2cccnc2)cc1 [Entinostat, N-(2-aminophenyl)-4-[N-(pyridine-3-yl)methoxycarbonylamino-methyl]-benzamide], the “persistence of changes in histone acetylation following administration” value (histone acetylation) is given as “persist for several weeks” and the half-life [1] is given as “about 100 hours”.
